Values of other authors in US8198326B2, “Phenolic antiseptic compositions and methods of use” (3M Innovative Properties Company, priority 2004, dated 2012).

System: methicillin resistant staphylococcus aureus
Conditions: reaction of free iodine with the organic load

Substance: povidone-iodine
- decrease of activity on addition of nasal secretions: 80-90%
